How the values were obtained:
5-HT1A receptor [1] = target: T1, 5-HT1A receptor (Rattus norvegicus, UniProt P19327); experiment: 5-HT1A receptor binding activity in rat hippocampal membrane homogenate
T1 construct: rat hippocampal membrane homogenate; from tissue; host or cells: rat hippocampal membrane homogenate
T1 sequence (P19327 1-422): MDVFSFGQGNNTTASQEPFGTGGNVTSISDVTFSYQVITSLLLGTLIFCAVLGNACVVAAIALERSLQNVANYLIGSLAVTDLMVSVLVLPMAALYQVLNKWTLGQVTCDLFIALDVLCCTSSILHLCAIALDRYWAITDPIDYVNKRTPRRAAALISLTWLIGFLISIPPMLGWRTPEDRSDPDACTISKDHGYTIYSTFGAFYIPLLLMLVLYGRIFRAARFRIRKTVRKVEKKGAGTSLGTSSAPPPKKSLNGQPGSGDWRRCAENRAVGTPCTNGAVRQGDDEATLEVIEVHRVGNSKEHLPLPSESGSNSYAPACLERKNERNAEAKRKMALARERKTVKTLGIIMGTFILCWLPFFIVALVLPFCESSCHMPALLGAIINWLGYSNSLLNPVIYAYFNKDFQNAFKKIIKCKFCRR
Procedure: The compounds of the invention were tested for 5-HT1A receptor binding activity in rat hippocampal membrane homogenate by the method of B S Alexander and M D Wood, J Pharm Pharmacol, 1988, 40, 888-891.

5-HT1A receptor [2] = target: T2, 5-HT1A receptor (Cavia porcellus, UniProt A0A286Y074); experiment: 5-HT1A receptor antagonism: antagonism of 5-carboxamidotryptamine in the guinea-pig ileum in vitro; details: read-out: pA2 (converted)
T2 construct: guinea-pig ileum in vitro; from tissue; host or cells: guinea-pig ileum
T2 sequence (A0A286Y074 1-421): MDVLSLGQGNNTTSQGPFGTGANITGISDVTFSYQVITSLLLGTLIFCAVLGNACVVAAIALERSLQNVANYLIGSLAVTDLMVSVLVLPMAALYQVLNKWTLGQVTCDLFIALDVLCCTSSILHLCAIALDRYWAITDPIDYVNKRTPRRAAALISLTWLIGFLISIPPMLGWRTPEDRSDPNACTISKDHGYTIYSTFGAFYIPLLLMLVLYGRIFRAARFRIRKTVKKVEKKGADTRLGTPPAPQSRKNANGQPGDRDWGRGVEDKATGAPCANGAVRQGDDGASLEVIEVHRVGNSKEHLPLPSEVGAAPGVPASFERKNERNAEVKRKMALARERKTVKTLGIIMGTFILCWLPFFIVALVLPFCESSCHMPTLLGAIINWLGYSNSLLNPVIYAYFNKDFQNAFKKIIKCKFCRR
Procedure: The compounds are tested for 5-HT1A receptor antagonism activity in a test involving the antagonism of 5-carboxamidotryptamine in the guinea-pig ileum in vitro (based upon the procedure of Fozard et al, Br J Pharmac, 1985, 86, 601P ).

IC50 (5-HT1A receptor [1]): 4 nM
Kb (5-HT1A receptor [2]): 6.31 nM
Structure (SMILES): COc1ccccc1N1CCN(CCN(C(=O)C2CCCCC2)c2ccccc2)CC1 [Example 2, N-(2-(4-(2-Methoxyphenyl)piperazin-1-yl)ethyl)-N-phenylcyclohexanecarboxamide]
